# Source: ChEMBL document CHEMBL1124243, “Application of the message-address concept in the design of highly potent and selective non-peptide delta opioid receptor antagonists” (J Med Chem, 1988)
# The source made the active and inactive calls. The rule behind the calls is not given here.
# What was measured:
# [1] = molecular target: Kappa-type opioid receptor (Cavia porcellus) (UniProt P41144); assay: Antagonistic activity against Opioid receptor kappa 1 using ethylketazocine in guinea pig ileum preparation; type: functional, tissue-based
# Sequence of Kappa-type opioid receptor (Cavia porcellus) (P41144 whole entry): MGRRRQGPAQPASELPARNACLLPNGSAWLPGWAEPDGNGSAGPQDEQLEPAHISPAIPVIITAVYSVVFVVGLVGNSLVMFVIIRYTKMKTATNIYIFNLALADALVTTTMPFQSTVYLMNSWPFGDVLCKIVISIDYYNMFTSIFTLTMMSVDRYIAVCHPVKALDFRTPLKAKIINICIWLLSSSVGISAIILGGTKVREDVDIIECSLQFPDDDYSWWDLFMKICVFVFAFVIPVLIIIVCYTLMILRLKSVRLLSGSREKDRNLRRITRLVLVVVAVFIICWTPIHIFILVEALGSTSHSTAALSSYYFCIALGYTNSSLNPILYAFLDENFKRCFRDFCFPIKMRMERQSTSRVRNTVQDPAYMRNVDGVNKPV
# [2] = molecular target: Mu-type opioid receptor (Cavia porcellus) (UniProt P97266); assay: Antagonistic activity against Opioid receptor mu 1 using morphine in guinea pig ileum preparation; type: functional, tissue-based
# Sequence of Mu-type opioid receptor (Cavia porcellus) (P97266 whole entry): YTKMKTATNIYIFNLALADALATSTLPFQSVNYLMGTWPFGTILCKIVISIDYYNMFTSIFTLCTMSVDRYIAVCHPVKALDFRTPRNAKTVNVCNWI
# [3] = molecular target: Delta-type opioid receptor (Mus musculus) (UniProt P32300); assay: Antagonistic activity against Opioid receptor delta 1 using [D-Ala2,D-Leu5]enkephalin in mouse vas deferens preparation; type: functional
# Sequence of Delta-type opioid receptor (Mus musculus) (P32300 whole entry): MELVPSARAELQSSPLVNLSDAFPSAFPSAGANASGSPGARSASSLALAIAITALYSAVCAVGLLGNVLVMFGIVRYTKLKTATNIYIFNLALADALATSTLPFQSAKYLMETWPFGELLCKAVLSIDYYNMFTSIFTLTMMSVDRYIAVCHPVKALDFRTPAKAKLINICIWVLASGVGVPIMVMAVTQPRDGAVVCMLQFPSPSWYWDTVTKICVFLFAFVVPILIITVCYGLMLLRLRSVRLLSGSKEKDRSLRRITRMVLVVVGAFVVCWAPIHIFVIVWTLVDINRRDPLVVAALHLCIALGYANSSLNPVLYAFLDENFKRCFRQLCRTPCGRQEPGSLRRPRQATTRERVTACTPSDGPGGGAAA
# [4] = molecular target: Mu-type opioid receptor (Cavia porcellus) (UniProt P97266); conditions: Ileum
# Description: Antagonistic activity against Opioid receptor mu 1 receptor using morphine in guinea pig ileum preparation
# [5] = molecular target: Mu-type opioid receptor (Cavia porcellus) (UniProt P97266); assay: Antagonistic activity against Opioid receptor mu 1 using morphine in guinea pig ileum preparation; D means no significant antagonism at 200 nM; type: functional, tissue-based
# [6] = molecular target: Kappa-type opioid receptor (Cavia porcellus) (UniProt P41144); assay: Antagonistic activity against Opioid receptor kappa 1 using ethylketazocine in guinea pig ileum preparation; No significant antagonism at 200 nM; type: functional, tissue-based
Structure (SMILES),Ke [1] [nM],Ke [2] [nM],Ke [3] [nM],Ke [4] [nM],Ke [5],Ke [6]
Oc1ccc2c3c1O[C@H]1c4oc5ccccc5c4C[C@@]4(O)[C@@H](C2)N(CC2CC2)CC[C@]314,48,27,1.1,–,–,–
COc1ccc2[nH]c3c(c2c1)C[C@@]1(O)[C@H]2Cc4ccc(O)c5c4[C@@]1(CCN2CC1CC1)[C@H]3O5,13,63,5.7,–,–,–
Oc1ccc2c3c1O[C@H]1c4[nH]c5ccc(F)cc5c4C[C@@]4(O)[C@@H](C2)N(CC2CC2)CC[C@]314,46,–,2,61,–,–
Cc1ccc2[nH]c3c(c2c1)C[C@@]1(O)[C@H]2Cc4ccc(O)c5c4[C@@]1(CCN2CC1CC1)[C@H]3O5,–,–,4.2,–,inactive,inactive
Oc1ccc2c3c1O[C@H]1c4[nH]c5ccccc5c4C[C@@]4(O)[C@@H](C2)N(CC2CC2)CC[C@]314,58,–,0.21,32,–,–
